Reference: US8586629B2, “Composition for the treatment of oxidative stress” (Probiox SA, priority 2008, dated 2013)
Read-outs that look alike come from different tables or passages of the source.

Tests used:
[1] = 6 week supplementation; cited from earlier work
[2] = Clinical study: plasma lipid peroxides, copper and zinc in women under Yasmin; assay type: in vivo
Text: (§1) Subjects: 60 women were selected on the basis of the below-mentioned selection criteria and divided into 4 groups. Keeping a possible dropout in mind (in total 45 women completed the study), these groups were designed such, that by the end of the study; groups SOCO_A and SOCO_D would contain 15 subjects; and groups SOCO_B and SOCO_C would contain 10 subjects.
(§2) Inclusion Criteria: • Age: between 18 and 35 years • Informed consent collected • Patients under oral contraception with Yasmin for at least three months
(§3) Whereby one menstrual cycle is flanked by 2 vertical lines and, whereby: • SOCO_A) represents the intake of a combination of a Zinc supplement and a Quercetin supplement • SOCO_B) represents the intake of a Zinc supplement • SOCO_C) represents the intake of a Quercetin supplement • SOCO_D) represents the intake of a placebo supplement
(§4) And whereby: • V1 represents a first visit between day −42 and day −14 • V2 represents a second visit between day −7 and −3 • V3 represents a third visit between day 23 and 27 • V4 represents a fourth visit between day 51 and 55 • V5 represents a fifth visit between day 113 and 117
(§5) SOCO_A: Quercetin DC 500 mg • Zinc picolinate 20% (elementary 22.5 mg) 113 mg • Magnesium stearate 3 mg • 1 capsule per day during 112 days
(§6) SOCO_B: Zinc picolinate 20% (elementary 22.5 mg) 113 mg • Dicalcium phosphate 125 mg • Cellulose microcrystals 375 mg • Magnesium stearate 3 mg • 1 capsule per day during 112 days
(§7) SOCO_C: Quercetin DC 500 mg • Dicalcium phosphate 85 mg • Cellulose microcrystals 28 mg • Magnesium stearate 3 mg • 1 capsule per day during 112 days
(§8) SOCO_D: Dicalcium phosphate 460 mg • Cellulose microcrystals 153 mg • Magnesium stearate 3 mg • 1 capsule per day during 112 days
(§9) A blood sample (2-3 tubes of +/−5 ml) was collected during each visit. A maximum of 60 ml blood was required per subject for the whole study. Blood samples for haematological and biochemical tests were collected during V1 and V5, and blood samples for oxidative stress assessment were collected during V2, V3, V4 and V5.
(§10) Plasma concentration of lipid peroxides, copper and zinc were determined in blood samples taken at V2, V3, V4 and V5. Plasma concentration of oxidized LDL was determined in blood samples taken at V2 and V5. The expression of 200 genes involved in oxidative stress were determined via quantitative measurements of mRNA expression by microarray, in blood samples taken at V2 and V5.

[3] = tested on: oxidized LDL; test: Clinical study: plasma oxidized LDL in women under Yasmin; assay type: in vivo; settings: for number of responders (minimum of 35% decrease of oxLDL): T4 versus T0; for effect on LDL oxidation: general conclusion; for oxLDL at T4 compared to T0: plasma, within arm
Text: as §1, §2, §3, §4, §5, §6, §7, §8, §9, §10

[4] = supplementation; cited from earlier work
[5] = tested on: LDL; settings: in vitro; cited from earlier work
[6] = tested on: LDL; settings: zinc supplementation; cited from earlier work
[7] = hypobaric hypoxia studies and COPD study; cited from earlier work
[8] = zinc supplementation; cited from earlier work
[9] = zinc supplemented group; cited from earlier work

For `C[C@@H]1O[C@@H](OC[C@H]2O[C@@H](Oc3c(-c4ccc(O)c(O)c4)oc4cc(O)cc(O)c4c3=O)[C@H](O)[C@@H](O)[C@@H]2O)[C@H](O)[C@H](O)[C@H]1O` [rutin], the “levels of three plasma flavonoids” value [1] is listed as “significantly elevated”.
For Zinc picolinate [Zinc alone], the “mean relative change in Cu/Zn between T4 and T0 (mean Cu/Zn decrease)” value ([2]; compared to placebo) was “significant”, the “mean relative change in Zn between T4 and T0 (mean zinc increase)” value ([2]; compared to placebo) was “significant” and the “mean relative change in Cu/Zn between T4 and T0 (mean Cu/Zn decrease)” value ([2]; compared to quercetin alone) was “significant”. For the same compound, the “mean relative change in Zn between T4 and T0 (mean zinc increase)” value ([2]; compared to quercetin alone) was “significant”, the “number of responders (minimum of 35% decrease of oxLDL)” value [3] was 0% and the “effect on LDL oxidation” value [3] was “No effect”. The “oxLDL at T4 compared to T0” value [3] was “no significant changes”.
For `O=c1c(O)c(-c2ccc(O)c(O)c2)oc2cc(O)cc(O)c12` [quercetin], the “protection from oxidative stress induced damage” value [4] is given as “does not exert protection” and the “inhibition of oxidative damage to LDL” value [5] is given as “most effective inhibitor”.
In the case of `O=c1c(O)c(-c2ccc(O)c(O)c2)oc2cc(O)cc(O)c12` [quercetin alone, Quercetin], the “number of responders (minimum of 35% decrease of oxLDL)” value [3] is reported as 0%, the “effect on LDL oxidation” value [3] is reported as “weak effect” and the “oxLDL at T4 compared to T0” value [3] is reported as “weak significant decrease”.
For `[Zn]` [zinc], the “Cu-induced LDL oxidation” value [6] is listed as “no effects”, the oxidative stress markers [7] is listed as “no effects” and the oxidative stress markers [8] is listed as “did not alter”. The incidence of infection [9] was “significantly lower” and the lipid peroxides [9] was “significant diminution”.
